Laboratory results reported in PubChem BioAssay AID328 (DTP/NCI, 2004).
Several values for one entry are separate records, joined by “and”; a condition that tells them apart may be missing. Equal entries are not always repeated. Inconclusive results and toxic doses are left out. How the source made its calls: active means survival T/C of 150% or more; inactive means T/C below 125% in these data.

System: BDF1 mice, P388 leukemia ip, median survival T/C
Assay: NCI In Vivo Anticancer Drug Screen. Data for tumor model P388 Leukemia (intraperitoneal) in B6D2F1 (BDF1) mice
Conditions: endpoint: median survival time, higher = longer survival
Method in brief: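 Vehicle-dosed animals serve as the reference; survival of compound-dosed, tumour-implanted mice is divided by it.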

[1] = dose: 100.0 mg/kg/injection, schedule: Q01DX009 (ip), vehicle: saline with Tween-80
[2] = dose: 100.0 mg/kg/injection, schedule: Q04DX003 (ip), vehicle: saline with Tween-80
[3] = dose: 200.0 mg/kg/injection, schedule: Q04DX003 (ip), vehicle: saline with Tween-80
[4] = dose: 400.0 mg/kg/injection, schedule: Q04DX003 (ip), vehicle: saline with Tween-80
[5] = dose: 200.0 mg/kg/injection, schedule: Q01DX009 (ip), vehicle: saline with Tween-80
[6] = dose: 400.0 mg/kg/injection, schedule: Q01DX009 (ip), vehicle: saline with Tween-80
[7] = dose: 50.0 mg/kg/injection, schedule: Q01DX009 (ip), vehicle: saline with Tween-80

Measured: T/C

CN=C(N)Nc1ccc(C(=O)O)cc1
inactive: dose: 50.0 mg/kg/injection, schedule: Q01DX009 (ip), vehicle: water 93 % of control | dose: 100.0 mg/kg/injection, schedule: Q01DX009 (ip), vehicle: water 99 % of control | dose: 100.0 mg/kg/injection, schedule: Q04DX003 (ip), vehicle: water 100 % of control | dose: 200.0 mg/kg/injection, schedule: Q01DX009 (ip), vehicle: water 90 % of control | dose: 200.0 mg/kg/injection, schedule: Q04DX003 (ip), vehicle: water 94 % of control | dose: 400.0 mg/kg/injection, schedule: Q01DX009 (ip), vehicle: water 92 % of control | dose: 400.0 mg/kg/injection, schedule: Q04DX003 (ip), vehicle: water 88 % of control

CCOC(=O)c1cc([N+](=O)[O-])c(C)s1
inactive: dose: 100.0 mg/kg/injection, schedule: Q01DX009 (sc), vehicle: olive oil, sesame oil, peanut oil 100 % of control | dose: 100.0 mg/kg/injection, schedule: Q04DX003 (sc), vehicle: olive oil, sesame oil, peanut oil 95 % of control | dose: 200.0 mg/kg/injection, schedule: Q01DX009 (sc), vehicle: olive oil, sesame oil, peanut oil 91 % of control | dose: 200.0 mg/kg/injection, schedule: Q04DX003 (sc), vehicle: olive oil, sesame oil, peanut oil 95 % of control | dose: 400.0 mg/kg/injection, schedule: Q01DX009 (sc), vehicle: olive oil, sesame oil, peanut oil 100 % of control | dose: 400.0 mg/kg/injection, schedule: Q04DX003 (sc), vehicle: olive oil, sesame oil, peanut oil 100 % of control

O=c1[nH]c(=O)n(C2CC(O)C(CO)O2)cc1C(F)(F)F (centres undefined)
inactive: dose: 62.5 mg/kg/injection, schedule: Q01DX009 (ip), vehicle: Klucel (hydroxypropylcellulose) (HPC) 104 % of control | dose: 125.0 mg/kg/injection, schedule: Q01DX009 (ip), vehicle: Klucel (hydroxypropylcellulose) (HPC) 118 % of control | dose: 250.0 mg/kg/injection, schedule: Q01DX009 (ip), vehicle: Klucel (hydroxypropylcellulose) (HPC) 122 % of control | dose: 500.0 mg/kg/injection, schedule: Q01DX009 (ip), vehicle: Klucel (hydroxypropylcellulose) (HPC) 90 % of control

CC1C/C=C2\CSC(NC(=O)/C3=C\N(C/C=C/C=C/C(O)CC(O)CC(=O)N3)C2=O)C(=O)O1 (centres undefined)
inactive: dose: 100.0 mg/kg/injection, schedule: Q01DX009 (ip), vehicle: Klucel (hydroxypropylcellulose) (HPC) 91 % of control | dose: 200.0 mg/kg/injection, schedule: Q01DX009 (ip), vehicle: Klucel (hydroxypropylcellulose) (HPC) 100 % of control | dose: 400.0 mg/kg/injection, schedule: Q01DX009 (ip), vehicle: Klucel (hydroxypropylcellulose) (HPC) 91 % of control

CC(C)NCC(=O)c1ccc(O)c(O)c1
inactive: [1] 109 % of control | [2] 100 % of control | [3] 100 % of control | [4] 100 % of control

Nc1ccc(OCc2ccc(C(=O)Nc3cccc(S(=O)(=O)F)c3)cc2)c(Cl)c1
inactive: [1] 91 % of control | dose: 100.0 mg/kg/injection, schedule: Q04DX003 (ip), vehicle: Klucel (hydroxypropylcellulose) (HPC) 100 % of control | [5] 91 % of control | dose: 200.0 mg/kg/injection, schedule: Q04DX003 (ip), vehicle: Klucel (hydroxypropylcellulose) (HPC) 100 % of control | [6] 100 % of control | dose: 400.0 mg/kg/injection, schedule: Q04DX003 (ip), vehicle: Klucel (hydroxypropylcellulose) (HPC) 100 % of control

CCOC(=O)C1(C(=O)OCC)C2CC=CCC21 (centres undefined)
inactive: dose: 100.0 mg/kg/injection, schedule: Q01DX009 (ip), vehicle: saline 95 % of control | dose: 200.0 mg/kg/injection, schedule: Q01DX009 (ip), vehicle: saline 100 % of control | dose: 400.0 mg/kg/injection, schedule: Q01DX009 (ip), vehicle: saline 100 % of control

NC(N)=NC(N)=Nc1ccc(S(=O)(=O)O)cc1
inactive: [1] 103 % of control | [5] 97 % of control | [6] 94 % of control

CCNC(C)(C)C(SS(=O)(=O)O)c1ccc(Cl)s1 (centres undefined)
inactive: dose: 25.0 mg/kg/injection, schedule: Q01DX009 (ip), vehicle: saline with Tween-80 103 % of control | [7] 95 % of control and 121 % of control | dose: 75.0 mg/kg/injection, schedule: Q01DX009 (ip), vehicle: saline with Tween-80 103 % of control | [1] 102 % of control | [2] 95 % of control | [5] 102 % of control | [3] 94 % of control | dose: 300.0 mg/kg/injection, schedule: Q01DX009 (ip), vehicle: saline with Tween-80 101 % of control

COC(=O)C1CC(=O)N(C)c2sc(C)c(C)c2C1=O (centres undefined)
inactive: dose: 25.0 mg/kg/injection, schedule: Q04DX003 (ip), vehicle: saline with Tween-80 107 % of control | [7] 111 % of control | dose: 50.0 mg/kg/injection, schedule: Q04DX003 (ip), vehicle: saline with Tween-80 92 % of control and 94 % of control | [1] 111 % of control | [2] 92 % of control | [5] 92 % of control | [3] 95 % of control and 104 % of control | [4] 100 % of control and 107 % of control | dose: 500.0 mg/kg/injection, schedule: Q04DX003 (ip), vehicle: saline with Tween-80 100 % of control

Cc1ccc(S(=O)(=O)NC(=O)OC23COCN2COC3)cc1
inactive: [7] 116 % of control
